Laboratory results reported in US4812465A, “Triazole derivatives for use as antimycotic agents” (CL Pharma Aktiengesellschaft, priority 1986, dated 1989).
In brackets after ≈: the same amount, converted by molar mass.

What follows are compounds tested on Mucor mucedo minus (assay: In vitro determination of minimum inhibitory concentration (MIC), serial dilution). Conditions: Mucor mucedo minus; pH 6.0, 22° C., 14 days.
Assay type: cell-based
Experimental: (§1) The antimycotic activities of the compounds were measured by in vitro determination of the minimum inhibitory concentration (MIC) for yeasts, molds and dermatophytes.
(§2) 6 dermatophytes, 2 yeasts and 4 molds were used for testing with fungi, as follows:
(§3) The minimum inhibitory concentration (MIC) was determined in serial dilution tests in test tubes. The volume of the liquid nutrient medium in each test tube was 4.5 ml.
(§4) The substances were dissolved in DMSO and diluted with sterile distilled water to 10 concentrations (100, 50, 25, 12.5, 6.25, 3.12, 1.56, 0.78, 0.39 and 0.19 μg/ml). 0.5 ml of each of these dilution steps was added to liquid nutrient medium. Thus, a constant concentration of solvent in all the nutrient media was ensured, irrespective of the active compound concentration.
(§5) A comparison solution which contained only the solvent in appropriate concentration was included when carrying out each of the tests.
(§6) The individual strains were maintained on Sabouraud/beerwort agar slants and, before they were used in a test, they underwent a passage on a modified Sabouraud liquid nutrient medium. The strains were then harvested, washed and converted into a suspension of McFaerland 3 in the case of yeasts and molds and of McFaerland 4-5 in the case of dermatophytes.
(§7) The amount of material inoculated (inoculum) was 100 μl/test tube (inoculated densities: yeasts about 10^3 /ml, molds about 10^4 /ml, dermatophytes about 10^4 /ml). The pH of the liquid nutrient medium was 6.0. After inoculation had taken place the fungi were incubated at 22° C. for 14 days.
(§8) The MIC was then determined. The concentration step at which growth was no longer visible on macroscopic inspection was used for the determination of the MIC. The comparison substance used was 1-(2-(2,4-dichlorophenyl)-2-(2,4-dichlorophenylmethoxy)ethyl)-1H-imidazole(compound A).

Compound | MIC Mu.mu-
Clc1ccc(C(Cn2ccnc2)NCCCSc2ccc(Br)cc2)c(Cl)c1 (stereo not drawn) [Compound 105] | 3,12 μg/ml

Same assay, conditions: Mucor mucedo, 336 h, pH 6, Mucor mucedo minus; pH 6.0, 22° C., 14 days

Compound | MIC
Cc1ccc(SCCCNC(Cn2ccnc2)c2ccc(Cl)cc2Cl)cc1 (stereo not drawn) [Compound 92] | 3.12 µg/mL (≈ 7.42 µM)
Clc1ccc(SCCCNC(Cn2cncn2)c2ccc(Cl)cc2Cl)cc1 (stereo not drawn) [Compound 95] | 3.12 µg/mL (≈ 7.06 µM)
Clc1ccc(SCCCNC(Cn2cncn2)c2ccc(Cl)cc2)cc1 (stereo not drawn) [Compound 99] | 6.25 µg/mL (≈ 15.3 µM)
Clc1ccc(SCCCNC(Cn2ccnc2)c2ccc(Br)cc2)cc1 (stereo not drawn) [Compound 100] | 25 µg/mL (≈ 55.5 µM)

The compounds below were run on Absidia ramosa in the same assay as above. Conditions: Absidia ramosa; pH 6.0, 22° C., 14 days.
Assay type: cell-based
Experimental: as §1, §2, §3, §4, §5, §6, §7, §8

Compound | MIC Abs.ra.
Clc1ccc(C(Cn2ccnc2)NCCCSc2ccc(Br)cc2)c(Cl)c1 (stereo not drawn) [Compound 105] | 12,5 μg/ml

Same assay, conditions: Lichtheimia ramosa, 336 h, pH 6, Absidia ramosa; pH 6.0, 22° C., 14 days

Compound | MIC
Cc1ccc(SCCCNC(Cn2ccnc2)c2ccc(Cl)cc2Cl)cc1 (stereo not drawn) [Compound 92] | 6.25 µg/mL (≈ 14.9 µM)
Clc1ccc(SCCCNC(Cn2cncn2)c2ccc(Cl)cc2Cl)cc1 (stereo not drawn) [Compound 95] | 100 µg/mL (≈ 226 µM)
Clc1ccc(SCCCNC(Cn2cncn2)c2ccc(Cl)cc2)cc1 (stereo not drawn) [Compound 99] | 100 µg/mL (≈ 245 µM)
Clc1ccc(SCCCNC(Cn2ccnc2)c2ccc(Br)cc2)cc1 (stereo not drawn) [Compound 100] | 6.25 µg/mL (≈ 13.9 µM)

What follows are compounds tested on Candida tropicalis in the same assay as above. Conditions: 336 h, pH 6, Candida tropicalis, pH 6.0, 22° C., 14 days, read-out: MIC C.trop.
Assay type: cell-based
Experimental: as §1, §2, §3, §4, §5, §6, §7, §8

Compound | MIC
Cc1ccc(SCCCNC(Cn2ccnc2)c2ccc(Cl)cc2Cl)cc1 (stereo not drawn) [Compound 92] | 12.5 µg/mL (≈ 29.7 µM)
Clc1ccc(SCCCNC(Cn2cncn2)c2ccc(Cl)cc2Cl)cc1 (stereo not drawn) [Compound 95] | 12.5 µg/mL (≈ 28.3 µM)
Clc1ccc(SCCCNC(Cn2cncn2)c2ccc(Cl)cc2)cc1 (stereo not drawn) [Compound 99] | 12.5 µg/mL (≈ 30.7 µM)
Clc1ccc(SCCCNC(Cn2ccnc2)c2ccc(Br)cc2)cc1 (stereo not drawn) [Compound 100] | 12.5 µg/mL (≈ 27.7 µM)
Clc1ccc(C(Cn2ccnc2)NCCCSc2ccc(Br)cc2)c(Cl)c1 (stereo not drawn) [Compound 105] | 3.12 µg/mL (≈ 6.43 µM)

What follows are compounds tested on Microsporum gypseum in the same assay as above. Conditions: Nannizzia gypsea, 336 h, pH 6, Microsporum gypseum; pH 6.0, 22° C., 14 days; read-out: MIC Mi.gyp.
Assay type: cell-based
Experimental: as §1, §2, §3, §4, §5, §6, §7, §8

Compound | MIC
Cc1ccc(SCCCNC(Cn2ccnc2)c2ccc(Cl)cc2Cl)cc1 (stereo not drawn) [Compound 92] | 0.78 µg/mL (≈ 1.86 µM)
Clc1ccc(SCCCNC(Cn2cncn2)c2ccc(Cl)cc2Cl)cc1 (stereo not drawn) [Compound 95] | 3.12 µg/mL (≈ 7.06 µM)
Clc1ccc(SCCCNC(Cn2cncn2)c2ccc(Cl)cc2)cc1 (stereo not drawn) [Compound 99] | 3.12 µg/mL (≈ 7.66 µM)
Clc1ccc(SCCCNC(Cn2ccnc2)c2ccc(Br)cc2)cc1 (stereo not drawn) [Compound 100] | 6.25 µg/mL (≈ 13.9 µM)
Clc1ccc(C(Cn2ccnc2)NCCCSc2ccc(Br)cc2)c(Cl)c1 (stereo not drawn) [Compound 105] | 0.39 µg/mL (≈ 0.804 µM)

The compounds below were run on Epidermophyton floccosum in the same assay as above. Conditions: 336 h, pH 6, Epidermophyton floccosum, pH 6.0, 22° C., 14 days.
Assay type: cell-based
Experimental: as §1, §2, §3, §4, §5, §6, §7, §8

Compound | MIC
Cc1ccc(SCCCNC(Cn2ccnc2)c2ccc(Cl)cc2Cl)cc1 (stereo not drawn) [Compound 92] | 0.78 µg/mL (≈ 1.86 µM)
Clc1ccc(SCCCNC(Cn2cncn2)c2ccc(Cl)cc2Cl)cc1 (stereo not drawn) [Compound 95] | 0.78 µg/mL (≈ 1.77 µM)
Clc1ccc(SCCCNC(Cn2cncn2)c2ccc(Cl)cc2)cc1 (stereo not drawn) [Compound 99] | 6.25 µg/mL (≈ 15.3 µM)
Clc1ccc(SCCCNC(Cn2ccnc2)c2ccc(Br)cc2)cc1 (stereo not drawn) [Compound 100] | 6.25 µg/mL (≈ 13.9 µM)

Same assay, conditions: pH 6.0, 22° C., 14 days

Compound | MIC Ep.flo
Clc1ccc(C(Cn2ccnc2)NCCCSc2ccc(Br)cc2)c(Cl)c1 (stereo not drawn) [Compound 105] | 0,10 μg/ml

Each compound was assayed on Aspergillus fumigatus in the same assay as above. Conditions: 20160 min, pH 6.
Assay type: cell-based
Experimental: as §1, §2, §3, §4, §5, §6, §7, §8

Compound | MIC Asp.fu.
Cc1ccc(SCCCNC(Cn2ccnc2)c2ccc(Cl)cc2Cl)cc1 (stereo not drawn) [Compound 92] | 0,78 μg/ml
Clc1ccc(SCCCNC(Cn2cncn2)c2ccc(Cl)cc2Cl)cc1 (stereo not drawn) [Compound 95] | 12,5 μg/ml
Clc1ccc(SCCCNC(Cn2cncn2)c2ccc(Cl)cc2)cc1 (stereo not drawn) [Compound 99] | 100 µg/mL (≈ 245 µM)
Clc1ccc(SCCCNC(Cn2ccnc2)c2ccc(Br)cc2)cc1 (stereo not drawn) [Compound 100] | 6,25 μg/ml
Clc1ccc(C(Cn2ccnc2)NCCCSc2ccc(Br)cc2)c(Cl)c1 (stereo not drawn) [Compound 105] | 0,39 μg/ml

These compounds were tested on Mucor mucedo plus in the same assay as above. Conditions: Mucor mucedo plus; pH 6.0, 22° C., 14 days.
Assay type: cell-based
Experimental: as §1, §2, §3, §4, §5, §6, §7, §8

Compound | MIC Mu.mu+
Clc1ccc(C(Cn2ccnc2)NCCCSc2ccc(Br)cc2)c(Cl)c1 (stereo not drawn) [Compound 105] | 3,12 μg/ml

Same assay, conditions: Mucor mucedo, 336 h, pH 6, Mucor mucedo plus; pH 6.0, 22° C., 14 days

Compound | MIC
Cc1ccc(SCCCNC(Cn2ccnc2)c2ccc(Cl)cc2Cl)cc1 (stereo not drawn) [Compound 92] | 0.78 µg/mL
Clc1ccc(SCCCNC(Cn2cncn2)c2ccc(Cl)cc2Cl)cc1 (stereo not drawn) [Compound 95] | 3.12 µg/mL
Clc1ccc(SCCCNC(Cn2cncn2)c2ccc(Cl)cc2)cc1 (stereo not drawn) [Compound 99] | 12.5 µg/mL
Clc1ccc(SCCCNC(Cn2ccnc2)c2ccc(Br)cc2)cc1 (stereo not drawn) [Compound 100] | 12.5 µg/mL

Each compound was assayed on Trichophyton rubrum in the same assay as above. Conditions: 336 h, pH 6, Trichophyton rubrum, pH 6.0, 22° C., 14 days.
Assay type: cell-based
Experimental: as §1, §2, §3, §4, §5, §6, §7, §8

Compound | MIC
Cc1ccc(SCCCNC(Cn2ccnc2)c2ccc(Cl)cc2Cl)cc1 (stereo not drawn) [Compound 92] | 0.78 µg/mL (≈ 1.86 µM)
Clc1ccc(SCCCNC(Cn2cncn2)c2ccc(Cl)cc2Cl)cc1 (stereo not drawn) [Compound 95] | 1.56 µg/mL (≈ 3.53 µM)
Clc1ccc(SCCCNC(Cn2cncn2)c2ccc(Cl)cc2)cc1 (stereo not drawn) [Compound 99] | 3.12 µg/mL (≈ 7.66 µM)
Clc1ccc(SCCCNC(Cn2ccnc2)c2ccc(Br)cc2)cc1 (stereo not drawn) [Compound 100] | 3.12 µg/mL (≈ 6.92 µM)

Same assay, conditions: pH 6.0, 22° C., 14 days

Compound | MIC Tri.ru.
Clc1ccc(C(Cn2ccnc2)NCCCSc2ccc(Br)cc2)c(Cl)c1 (stereo not drawn) [Compound 105] | 0,10 μg/ml

Each compound was assayed on Candida albicans in the same assay as above. Conditions: 336 h, pH 6, Candida albicans, pH 6.0, 22° C., 14 days, read-out: MIC C.alb.
Assay type: cell-based
Experimental: as §1, §2, §3, §4, §5, §6, §7, §8

Compound | MIC
Cc1ccc(SCCCNC(Cn2ccnc2)c2ccc(Cl)cc2Cl)cc1 (stereo not drawn) [Compound 92] | 12.5 µg/mL (≈ 29.7 µM)
Clc1ccc(SCCCNC(Cn2cncn2)c2ccc(Cl)cc2Cl)cc1 (stereo not drawn) [Compound 95] | 12.5 µg/mL (≈ 28.3 µM)
Clc1ccc(SCCCNC(Cn2cncn2)c2ccc(Cl)cc2)cc1 (stereo not drawn) [Compound 99] | 6.25 µg/mL (≈ 15.3 µM)
Clc1ccc(SCCCNC(Cn2ccnc2)c2ccc(Br)cc2)cc1 (stereo not drawn) [Compound 100] | 3.12 µg/mL (≈ 6.92 µM)
Clc1ccc(C(Cn2ccnc2)NCCCSc2ccc(Br)cc2)c(Cl)c1 (stereo not drawn) [Compound 105] | 3.12 µg/mL (≈ 6.43 µM)

What follows are compounds tested on Microsporum canis in the same assay as above. Conditions: 336 h, pH 6, Microsporum canis, pH 6.0, 22° C., 14 days.
Assay type: cell-based
Experimental: as §1, §2, §3, §4, §5, §6, §7, §8

Compound | MIC
Cc1ccc(SCCCNC(Cn2ccnc2)c2ccc(Cl)cc2Cl)cc1 (stereo not drawn) [Compound 92] | 3.12 µg/mL (≈ 7.42 µM)
Clc1ccc(SCCCNC(Cn2cncn2)c2ccc(Cl)cc2Cl)cc1 (stereo not drawn) [Compound 95] | 6.25 µg/mL (≈ 14.1 µM)
Clc1ccc(SCCCNC(Cn2cncn2)c2ccc(Cl)cc2)cc1 (stereo not drawn) [Compound 99] | 12.5 µg/mL (≈ 30.7 µM)
Clc1ccc(SCCCNC(Cn2ccnc2)c2ccc(Br)cc2)cc1 (stereo not drawn) [Compound 100] | 6.25 µg/mL (≈ 13.9 µM)
Clc1ccc(C(Cn2ccnc2)NCCCSc2ccc(Br)cc2)c(Cl)c1 (stereo not drawn) [Compound 105] | 0.78 µg/mL (≈ 1.61 µM)

The compounds below were run on Trichophyton mentagrophytes in the same assay as above. Conditions: 336 h, pH 6, Trichophyton mentagrophytes, pH 6.0, 22° C., 14 days.
Assay type: cell-based
Experimental: as §1, §2, §3, §4, §5, §6, §7, §8

Compound | MIC
Cc1ccc(SCCCNC(Cn2ccnc2)c2ccc(Cl)cc2Cl)cc1 (stereo not drawn) [Compound 92] | 0.78 µg/mL (≈ 1.86 µM)
Clc1ccc(SCCCNC(Cn2cncn2)c2ccc(Cl)cc2Cl)cc1 (stereo not drawn) [Compound 95] | 3.12 µg/mL (≈ 7.06 µM)
Clc1ccc(SCCCNC(Cn2cncn2)c2ccc(Cl)cc2)cc1 (stereo not drawn) [Compound 99] | 6.25 µg/mL (≈ 15.3 µM)
Clc1ccc(SCCCNC(Cn2ccnc2)c2ccc(Br)cc2)cc1 (stereo not drawn) [Compound 100] | 6.25 µg/mL (≈ 13.9 µM)

Same assay, conditions: pH 6.0, 22° C., 14 days

Compound | MIC Tri.me.
Clc1ccc(C(Cn2ccnc2)NCCCSc2ccc(Br)cc2)c(Cl)c1 (stereo not drawn) [Compound 105] | 0,10 μg/ml

The compounds below were run on Trichophyton verrucosum in the same assay as above. Conditions: 336 h, pH 6, Trichophyton verrucosum, pH 6.0, 22° C., 14 days.
Assay type: cell-based
Experimental: as §1, §2, §3, §4, §5, §6, §7, §8

Compound | MIC
Cc1ccc(SCCCNC(Cn2ccnc2)c2ccc(Cl)cc2Cl)cc1 (stereo not drawn) [Compound 92] | 0.78 µg/mL (≈ 1.86 µM)
Clc1ccc(SCCCNC(Cn2cncn2)c2ccc(Cl)cc2Cl)cc1 (stereo not drawn) [Compound 95] | 3.12 µg/mL (≈ 7.06 µM)
Clc1ccc(SCCCNC(Cn2cncn2)c2ccc(Cl)cc2)cc1 (stereo not drawn) [Compound 99] | 3.12 µg/mL (≈ 7.66 µM)
Clc1ccc(SCCCNC(Cn2ccnc2)c2ccc(Br)cc2)cc1 (stereo not drawn) [Compound 100] | 6.25 µg/mL (≈ 13.9 µM)

Same assay, conditions: pH 6.0, 22° C., 14 days

Compound | MIC Tri.ve.
Clc1ccc(C(Cn2ccnc2)NCCCSc2ccc(Br)cc2)c(Cl)c1 (stereo not drawn) [Compound 105] | 0,10 μg/ml
